# Reference: patent publication US8822530B2, “Sulfur derivatives as chemokine receptor modulators” (Allergan, Inc., priority 2010, dated 2014)
# Target: T1, CCR2 receptor (Homo sapiens, UniProt P41597)
# T1 construct: expressed in transfected cells
# Assay: Calcium activity assay on FLIPR Tetra in HEK-Gqi5 cells stably expressing CCR2
# Assay type: cell-based
# Procedure: HEK-Gqi5 cells stably expressing CCR2 were cultured in DMEM high glucose, 10% FBS, 1% PSA, 400 μg/ml geneticin and 50 μg/ml hygromycin. Appropriate positive control chemokines (MCP-1, MIP1A or RANTES) was used as the positive control agonist for screening compound-induced calcium activity assayed on the FLIPR^Tetra. The drug plates were prepared in 384-well microplates using the EP3 and the MultiPROBE robotic liquid handling systems. Compounds were synthesized and tested for CCR2 activity.
# T1 sequence (P41597 whole entry): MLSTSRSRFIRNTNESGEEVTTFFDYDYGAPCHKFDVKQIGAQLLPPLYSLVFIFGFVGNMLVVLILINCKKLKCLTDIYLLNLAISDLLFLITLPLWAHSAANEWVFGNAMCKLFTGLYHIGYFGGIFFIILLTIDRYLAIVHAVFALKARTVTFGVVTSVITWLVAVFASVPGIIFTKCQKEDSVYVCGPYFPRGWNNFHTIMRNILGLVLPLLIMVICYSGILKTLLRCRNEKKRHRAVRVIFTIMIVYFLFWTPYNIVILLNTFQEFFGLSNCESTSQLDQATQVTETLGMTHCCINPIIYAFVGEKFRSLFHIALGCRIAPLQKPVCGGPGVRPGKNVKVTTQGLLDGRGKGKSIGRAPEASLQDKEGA
smiles,measurement,value
O=C(NCC[N+]1([O-])CCCC1)c1cccc(CS(=O)(=O)c2ccc(Cl)cc2NS(=O)(=O)c2ccc(Cl)c(C(F)(F)F)c2)c1 [3-({[4-chloro-2-({[4-chloro-3-(trifluoromethyl)phenyl]sulfonyl}amino)phenyl]sulfonyl}methyl)-N-[2-(1-oxidopyrrolidin-1-yl)ethyl]benzamide],CCR2 % ANTAGONISM,51%
CCNC(=O)c1ccccc1CSc1ccc(Cl)cc1NS(=O)(=O)c1ccc(Cl)c(C(F)(F)F)c1 [2-({[4-chloro-2-({[4-chloro-3-(trifluoromethyl)phenyl]sulfonyl}amino)phenyl]sulfanyl}methyl)-N-ethylbenzamide],CCR2 % ANTAGONISM,92%
same,IC50,149 nM
COC(=O)c1cccc(C[S+]([O-])c2ccc(Cl)cc2NS(=O)(=O)c2ccc(Cl)c(C(F)(F)F)c2)c1 (centres unmarked) [methyl 3-({[4-chloro-2-({[4-chloro-3-(trifluoromethyl)phenyl]sulfonyl}amino)phenyl]sulfinyl}methyl)benzoate],CCR2 % ANTAGONISM,93%
same,IC50,3110 nM
CS(=O)(=O)Nc1cccc(CS(=O)(=O)c2ccc(Cl)cc2NS(=O)(=O)c2cc3ccccc3o2)c1 [N-[5-chloro-2-({3-[(methylsulfonyl)amino]benzyl}sulfonyl)phenyl]-1-benzofuran-2-sulfonamide],CCR2 % ANTAGONISM,91%
same,IC50,6570 nM
CC(=O)Nc1cccc(CSc2ccc(Cl)cc2N(C(C)=O)S(=O)(=O)c2cc3ccccc3o2)c1 [N-(2-{[3-(acetylamino)benzyl]sulfanyl}-5-chlorophenyl)-N-(1-benzofuran-2-ylsulfonyl)acetamide],CCR2 % ANTAGONISM,73%
same,IC50,1610 nM
O=C(O)c1ccccc1CSc1ccc(Cl)cc1NS(=O)(=O)c1cc2ccccc2o1 [2-[({2-[(1-benzofuran-2-ylsulfonyl)amino]-4-chlorophenyl}sulfanyl)methyl]benzoic acid],CCR2 % ANTAGONISM,101%
same,IC50,7 nM
